Test results as given in patent publication US20230127046A1, “G9a INHIBITOR” (RIKEN, priority 2019, published 2023).
Like-named read-outs stand apart in the source and are kept apart here.

Key:
[1] = molecular target: T1, recombinant human G9a protein (Homo sapiens, UniProt Q96KQ7); assay: G9a inhibitory activity test (ALPHA); assay type: biochemical
T1 construct: purchased BPS Bioscience Inc. #51001
T1 sequence (Q96KQ7 785-1210 limits assumed): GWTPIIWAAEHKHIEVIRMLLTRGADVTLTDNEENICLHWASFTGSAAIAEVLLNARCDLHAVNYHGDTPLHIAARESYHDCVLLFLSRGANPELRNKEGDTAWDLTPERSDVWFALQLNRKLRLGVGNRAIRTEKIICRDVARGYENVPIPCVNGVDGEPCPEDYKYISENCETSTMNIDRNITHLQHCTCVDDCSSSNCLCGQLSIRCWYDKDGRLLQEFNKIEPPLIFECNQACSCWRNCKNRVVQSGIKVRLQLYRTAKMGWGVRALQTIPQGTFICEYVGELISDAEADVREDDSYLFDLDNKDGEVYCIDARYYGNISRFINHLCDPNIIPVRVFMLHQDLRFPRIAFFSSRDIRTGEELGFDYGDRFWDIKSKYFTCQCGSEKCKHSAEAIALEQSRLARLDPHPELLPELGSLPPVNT
How it was run: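 Human G9a (0.05 to 0.1 nM) in Tris pH 9.0 buffer preincubated with compound 10 min, then biotinylated histone H3 (1-21) peptide and SAM mixed 1:1 from 500 nM and 150 μM solutions, 1 h at room temperature. H3K9me2 detected by AlphaLISA acceptor/streptavidin donor beads; IC50 from percent inhibition relative to no-compound and no-enzyme controls.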

[2] = tested on: intracellular histone H3K9 dimethylation level in human lung cancer cell line NCI-H460; assay: Histone H3K9 dimethylation inhibitory activity test (Western blotting); assay type: cell-based; conditions: NCI-H460 cells, 72 hours
Protocol: The inhibitory activity of each compound against G9a was evaluated by adding the compound to a human lung cancer cell line NCI-H460, and detecting change in intracellular histone H3K9 dimethylation level by Western blotting. The NCI-H460 cells were cultured in a DMEM medium (FUJIFILM Wako Pure Chemical Corp., 044-29765) containing 10% fetal bovine serum and 4 mM glutamine. The cultured cells were washed with PBS and then detached with trypsin/EDTA, and the cell suspension was adjusted to 2.5×10^4 cells/mL. The cell suspension was inoculated at 500 μL/well to a 24-well microplate (Thermo Fisher Scientific, Inc., 142475) and cultured overnight under conditions of 37° C. and 5% CO2. On the next day, the test compound (solution in DMSO) was added at 0.5 µL/well and reacted for 72 hours under conditions of 37° C. and 5% CO2. DMSO was added at 0.5 μL/well to control wells (final DMSO concentration: 0.1%). The medium was removed, and the cells were washed with PBS. Then, a 2×SDS-PAGE sample buffer (100 mM Tris-HCl (pH 6.8), 4% sodium lauryl sulfate, 2% 2-mercaptoethanol, 20% glycerol, 0.005% bromophenol blue) was added at 50 μL/well to prepare a sample. The recovered sample was heated at 95 to 100° C. for 10 minutes, and protein was separated by polyacrylamide gel electrophoresis (SDS-PAGE). Subsequently, the separated protein was transferred to a polyvinylidene fluoride (PVDF) membrane by semi-dry blotting. The PVDF membrane was dipped in 3% skimmed milk (dissolved in PBS containing 0.05% Tween 20 (PBST)), blocked at room temperature for 30 to 60 minutes, then dipped in an anti-dimethylated histone H3K9 antibody (Abcam plc, ab1220) diluted 1000-fold with 3% skimmed milk, and reacted overnight at 4° C. On the next day, the PVDF membrane was washed three times with PBST, then dipped in a HRP (horseradish peroxidase)-labeled anti-mouse IgG antibody diluted 10000-fold with skimmed milk, and reacted at room temperature for 1 hour. The PVDF membrane was washed three times with PBST, then dipped in chemiluminescent substrate solution Immobilon Western Chemiluminescent HRP Substrate (Merck Millipore, WBKLS0500), incubated at room temperature for 5 minutes, and photographed with Lumino Image Analyzer (GE Healthcare Japan Corp., ImageQuant LAS4000).
Then, the antibody was stripped from the PVDF membrane using re-probe reagent EzReprobe (ATTO Corp., WSE-7240), and trimethylated histone H3K9 and histone H3 were detected by the same procedures as above. An anti-trimethyl histone H3K9 antibody (39161, diluted 1000-fold) from Active Motif, Inc. and an anti-histone H3 antibody (ab1791, diluted 2000-fold) from Abcam plc were used in the detection. The band of each protein was quantified from the taken image using image processing software ImageJ (NIH). The ratios of dimethylated histone H3K9 and trimethylated histone H3K9 to the histone H3 protein were calculated with the numeric value of a compound-unsupplemented sample defined as 100%. A compound concentration at which the ratio of dimethylated histone H3K9 was 50% was calculated as a 50% inhibition concentration (IC50 value) using data analysis software Origin (LightStone Corp.).

[3] = tested on: human lung cancer cell line NCI-H460; assay: Colony formation inhibition test; assay type: cell-based; conditions: 288 h, NCI-H460 cells, culture for 12 days, read-out: Inhibitory activity (colony formation GI50)
Protocol: Each compound was evaluated for its colony formation inhibitory activity against a human lung cancer cell line NCI-H460. The NCI-H460 cells were cultured in a DMEM medium (FUJIFILM Wako Pure Chemical Corp., 044-29765) containing 10% fetal bovine serum and 4 mM glutamine. The cultured cells were washed with PBS, then detached with trypsin/EDTA, and adjusted to 2×10^3 cells/mL to prepare a cell suspension. The cell suspension was inoculated at 1 mL/well to a 12-well microplate (Corning Inc., 3513), and the test compound (DMSO solution) was added at 1 μL/well, followed by culture for 12 days under conditions of 37° C. and 5% CO2. DMSO was added at 1 μL/well to control wells with a final DMSO concentration set to 0.1%. The medium was discarded every day or every two days, and a fresh medium was added at 1 mL/well. The test compound or DMSO was added at 1 μL/well. The proportion of a colony of each well was measured using a high-speed cell imaging system (Tomy Digital Biology Co., Ltd., Celigo). The ratio of the colony in each compound-supplemented group was determined with the ratio of the colony formed in a test compound solution-unsupplemented well defined as 1. A compound concentration necessary for suppressing the rate of colony formation by 50% of the control (GI50) was calculated using data analysis software Origin (LightStone Crop.).

[4] = read-out: Inhibitory activity (G9a IC50)
[5] = biotinylated histone H3 peptide (1-21), SAM, read-out: Inhibitory activity (G9a IC50 value)

| IC50 [1, 4] [µM] | IC50 [2] [µM] | GI50 [3] [µM] | IC50 [1, 5] [µM] | SMILES |
| --- | --- | --- | --- | --- |
| < 0.05 | 0.05 to 0.5 | < 0.5 |  | COc1ccc(NC(=O)C(CCC2CC2)NC(=O)c2ccc(Nc3ccncc3)cc2)cn1 (stereo not drawn) [Example 6-49] |
| ≥ 0.2 | ≥ 0.5 | ≥ 1 |  | CCCCC(NC(=O)c1ccc(N2CCN(C)CC2)cc1Cl)C(=O)Nc1ccc(OC2CCN(C)CC2)nc1 (stereo not drawn) [Example 11-4] |
| < 0.05 | 0.05 to 0.5 | < 0.5 |  | COc1ccc(NC(=O)C(CCC2CC2)NC(=O)c2ccc(Nc3cc(C)nc(C)c3)cc2)cn1 (stereo not drawn) [Example 6-62] |
| < 0.05 | < 0.05 | < 0.5 |  | Cc1c(C(=O)N[C@@H](CCC2CC2)C(=O)Nc2ccccc2)[nH]c2c1C(=O)CC(C)(C)C2 [Example 6-26] |
| < 0.05 | 0.05 to 0.5 | < 0.5 |  | COc1ccc(NC(=O)[C@H](CCC2CC2)NC(=O)c2ccc(Nc3cc(C)nc(C)c3)cc2)cn1 [Example 6-89] |
| 0.05 to 0.2 | < 0.05 | 0.5 to 1 |  | CCCC[C@H](NC(=O)c1[nH]c2c(c1C)C(=O)CC(C)(C)C2)C(=O)N[C@@H](C)c1ccccc1 [Example 2-1, 3,6,6-trimethyl-4-oxo-N-((S)-1-oxo-1-(((S)-1-phenylethyl)amino)hexan-2-yl)-4,5,6,7-tetrahydro-1H-indole-2-carboxamide] |

Second part, the molecule before the results:

| SMILES | IC50 [1, 4] [µM] | IC50 [2] [µM] | GI50 [3] [µM] | IC50 [1, 5] [µM] |
| --- | --- | --- | --- | --- |
| Cc1c(C(=O)NC(CCC2CC2)C(=O)Nc2ccc(C#N)cc2)[nH]c2c1C(=O)CC(C)(C)C2 (stereo not drawn) [Example 1-79] |  | < 0.05 | < 0.5 | 0.05 to 0.2 |
| Cc1ccc(NC(=O)C(CCC2CC2)NC(=O)c2[nH]c3c(c2C)C(=O)CC(C)(C)C3)cn1 (stereo not drawn) [Example 1-80] |  | 0.05 to 0.5 | 0.5 to 1 | ≥ 0.2 |
| Cc1c(C(=O)NC(CCC2CC2)C(=O)NC2CCN(C)CC2)[nH]c2c1C(=O)CC(C)(C)C2 (stereo not drawn) [Example 1-68] |  | 0.05 to 0.5 | ≥ 1 | ≥ 0.2 |
| CCCCNC(=O)C(CCC1CC1)NC(=O)c1[nH]c2c(c1C)C(=O)CC(C)(C)C2 (stereo not drawn) [Example 1-82] |  | < 0.05 | ≥ 1 | 0.05 to 0.2 |
